ChEMBL document CHEMBL3885881, “DrugMatrix”

Species: Rattus norvegicus
Assay: DrugMatrix - Regimen: Daily Repeat
Format: toxicity, organism-based, Sprague-Dawley
Set-up: regimen Daily Repeat, gender Male, age 6-8 weeks
Conditions: in vivo, po, route oral GAVAGE, vehicle .5 % CMC; for ABSOLUTE BASOPHIL / ABSOLUTE EOSINOPHIL / ABSOLUTE LYMPHOCYTE / ABSOLUTE MONOCYTE / ABSOLUTE SEGMENTED NEUTROPHIL / BASOPHIL / EOSINOPHIL / ERYTHROCYTE COUNT / HEMATOCRIT / HEMOGLOBIN / LEUKOCYTE COUNT / LYMPHOCYTE / MEAN CORPUSCULAR HEMOGLOBIN / MEAN CORPUSCULAR HEMOGLOBIN CONCENTRATION / MEAN CORPUSCULAR VOLUME / MONOCYTE / NEUTROPHIL / NUCLEATED RED BLOOD CELLS / PLATELET COUNT: tissue Blood; for ALANINE AMINOTRANSFERASE / ALBUMIN / ALKALINE PHOSPHATASE / ASPARTATE AMINOTRANSFERASE / BLOOD UREA NITROGEN / CARBON DIOXIDE / CHLORIDE / CHOLESTEROL / CREATINE PHOSPHOKINASE / CREATININE / GLUCOSE / LACTATE DEHYDROGENASE / LIPASE / PHOSPHORUS / POTASSIUM / SODIUM / TOTAL BILIRUBIN / TOTAL PROTEIN / URIC ACID: tissue Plasma
[1] = 2 mg/kg, 72 h, dose level Low, time 3 day
[2] = 2 mg/kg, 120 h, dose level Low, time 5 day
[3] = 83 mg/kg, 72 h, dose level High, time 3 day
[4] = 83 mg/kg, 120 h, dose level High, time 5 day

Compound: Nc1cc(N2CCCCC2)nc(N)[n+]1[O-] [MINOXIDIL]
- ABSOLUTE BASOPHIL [1]: 0 CELLS/uL
- ABSOLUTE EOSINOPHIL [1]: 0 CELLS/uL
- ABSOLUTE LYMPHOCYTE [1]: 9089 CELLS/uL
- ABSOLUTE MONOCYTE [1]: 42.33 CELLS/uL
- ABSOLUTE SEGMENTED NEUTROPHIL [1]: 735.33 CELLS/uL
- BASOPHIL [1]: 0%
- EOSINOPHIL [1]: 0%
- ERYTHROCYTE COUNT [1]: 4.78 x10E6/uL
- HEMATOCRIT [1]: 30.6%
- HEMOGLOBIN [1]: 12.57 G/DL
- LEUKOCYTE COUNT [1]: 9.87 x10E3/uL
- LYMPHOCYTE [1]: 92%
- MEAN CORPUSCULAR HEMOGLOBIN [1]: 26.3 pg
- MEAN CORPUSCULAR HEMOGLOBIN CONCENTRATION [1]: 41.1 G/DL
- MEAN CORPUSCULAR VOLUME [1]: 64.07 fL
- MONOCYTE [1]: 0.33%
- NEUTROPHIL [1]: 7.67%
- NUCLEATED RED BLOOD CELLS [1]: 0 /100WBC
- PLATELET COUNT [1]: 1041 x10E3/uL
- ALANINE AMINOTRANSFERASE [1]: 50.33 u/L
- ALBUMIN [1]: 4.3 G/DL
- ALKALINE PHOSPHATASE [1]: 415 u/L
- ASPARTATE AMINOTRANSFERASE [1]: 94.33 u/L
- BLOOD UREA NITROGEN [1]: 18 mg/dL
- CARBON DIOXIDE [1]: 35.33 mmol/L
- CHLORIDE [1]: 100.67 MEQ/L
- CHOLESTEROL [1]: 74.67 mg/dL
- CREATINE PHOSPHOKINASE [1]: 368.67 u/L
- CREATININE [1]: 0.23 mg/dL
- GLUCOSE [1]: 127.67 mg/dL
- LACTATE DEHYDROGENASE [1]: 159 u/L
- LIPASE [1]: 10 u/L
- PHOSPHORUS [1]: 11.3 mg/dL
- POTASSIUM [1]: 6.23 MEQ/L
- SODIUM [1]: 147.5 MEQ/L
- TOTAL BILIRUBIN [1]: 0.1 mg/dL
- TOTAL PROTEIN [1]: 6.03 G/DL
- URIC ACID [1]: 0.93 mg/dL
- ABSOLUTE BASOPHIL [2]: 0 CELLS/uL
- ABSOLUTE EOSINOPHIL [2]: 0 CELLS/uL
- ABSOLUTE LYMPHOCYTE [2]: 14468 CELLS/uL
- ABSOLUTE MONOCYTE [2]: 213.67 CELLS/uL
- ABSOLUTE SEGMENTED NEUTROPHIL [2]: 818.33 CELLS/uL
- BASOPHIL [2]: 0%
- EOSINOPHIL [2]: 0%
- ERYTHROCYTE COUNT [2]: 5.34 x10E6/uL
- HEMATOCRIT [2]: 33.6%
- HEMOGLOBIN [2]: 13.27 G/DL
- LEUKOCYTE COUNT [2]: 15.5 x10E3/uL
- LYMPHOCYTE [2]: 93.33%
- MEAN CORPUSCULAR HEMOGLOBIN [2]: 24.8 pg
- MEAN CORPUSCULAR HEMOGLOBIN CONCENTRATION [2]: 39.47 G/DL
- MEAN CORPUSCULAR VOLUME [2]: 62.9 fL
- MONOCYTE [2]: 1.33%
- NEUTROPHIL [2]: 5.33%
- NUCLEATED RED BLOOD CELLS [2]: 0 /100WBC
- PLATELET COUNT [2]: 1308.33 x10E3/uL
- ALANINE AMINOTRANSFERASE [2]: 52 u/L
- ALBUMIN [2]: 4.33 G/DL
- ALKALINE PHOSPHATASE [2]: 362.67 u/L
- ASPARTATE AMINOTRANSFERASE [2]: 78.67 u/L
- BLOOD UREA NITROGEN [2]: 18 mg/dL
- CARBON DIOXIDE [2]: 33 mmol/L
- CHLORIDE [2]: 102 MEQ/L
- CHOLESTEROL [2]: 75.33 mg/dL
- CREATINE PHOSPHOKINASE [2]: 156.33 u/L
- CREATININE [2]: 0.2 mg/dL
- GLUCOSE [2]: 153 mg/dL
- LACTATE DEHYDROGENASE [2]: 135.67 u/L
- LIPASE [2]: 8.67 u/L
- PHOSPHORUS [2]: 14.1 mg/dL
- POTASSIUM [2]: 6.87 MEQ/L
- SODIUM [2]: 146.73 MEQ/L
- TOTAL BILIRUBIN [2]: 0.27 mg/dL
- TOTAL PROTEIN [2]: 6.27 G/DL
- URIC ACID [2]: 1.43 mg/dL
- ABSOLUTE BASOPHIL [3]: 0 CELLS/uL
- ABSOLUTE EOSINOPHIL [3]: 0 CELLS/uL
- ABSOLUTE LYMPHOCYTE [3]: 11593 CELLS/uL
- ABSOLUTE MONOCYTE [3]: 0 CELLS/uL
- ABSOLUTE SEGMENTED NEUTROPHIL [3]: 1707 CELLS/uL
- BASOPHIL [3]: 0%
- EOSINOPHIL [3]: 0%
- ERYTHROCYTE COUNT [3]: 4.83 x10E6/uL
- HEMATOCRIT [3]: 30.37%
- HEMOGLOBIN [3]: 12.7 G/DL
- LEUKOCYTE COUNT [3]: 13.3 x10E3/uL
- LYMPHOCYTE [3]: 87.67%
- MEAN CORPUSCULAR HEMOGLOBIN [3]: 26.3 pg
- MEAN CORPUSCULAR HEMOGLOBIN CONCENTRATION [3]: 41.83 G/DL
- MEAN CORPUSCULAR VOLUME [3]: 62.8 fL
- MONOCYTE [3]: 0%
- NEUTROPHIL [3]: 12.33%
- NUCLEATED RED BLOOD CELLS [3]: 0 /100WBC
- PLATELET COUNT [3]: 1119.33 x10E3/uL
- ALANINE AMINOTRANSFERASE [3]: 40.33 u/L
- ALBUMIN [3]: 4.27 G/DL
- ALKALINE PHOSPHATASE [3]: 346.33 u/L
- ASPARTATE AMINOTRANSFERASE [3]: 73.67 u/L
- BLOOD UREA NITROGEN [3]: 18.33 mg/dL
- CARBON DIOXIDE [3]: 30.33 mmol/L
- CHLORIDE [3]: 103.33 MEQ/L
- CHOLESTEROL [3]: 70.33 mg/dL
- CREATINE PHOSPHOKINASE [3]: 164 u/L
- CREATININE [3]: 0.15 mg/dL
- GLUCOSE [3]: 140 mg/dL
- LACTATE DEHYDROGENASE [3]: 144 u/L
- LIPASE [3]: 9.33 u/L
- PHOSPHORUS [3]: 12.47 mg/dL
- POTASSIUM [3]: 6.31 MEQ/L
- SODIUM [3]: 145.1 MEQ/L
- TOTAL BILIRUBIN [3]: 0.17 mg/dL
- TOTAL PROTEIN [3]: 5.67 G/DL
- URIC ACID [3]: 1.33 mg/dL
- ABSOLUTE BASOPHIL [4]: 0 CELLS/uL
- ABSOLUTE EOSINOPHIL [4]: 0 CELLS/uL
- ABSOLUTE LYMPHOCYTE [4]: 12306 CELLS/uL
- ABSOLUTE MONOCYTE [4]: 270 CELLS/uL
- ABSOLUTE SEGMENTED NEUTROPHIL [4]: 990.67 CELLS/uL
- BASOPHIL [4]: 0%
- EOSINOPHIL [4]: 0%
- ERYTHROCYTE COUNT [4]: 5.12 x10E6/uL
- HEMATOCRIT [4]: 32.97%
- HEMOGLOBIN [4]: 13.17 G/DL
- LEUKOCYTE COUNT [4]: 13.57 x10E3/uL
- LYMPHOCYTE [4]: 90.67%
- MEAN CORPUSCULAR HEMOGLOBIN [4]: 25.77 pg
- MEAN CORPUSCULAR HEMOGLOBIN CONCENTRATION [4]: 39.93 G/DL
- MEAN CORPUSCULAR VOLUME [4]: 64.53 fL
- MONOCYTE [4]: 2%
- NEUTROPHIL [4]: 7.33%
- NUCLEATED RED BLOOD CELLS [4]: 0.33 /100WBC
- PLATELET COUNT [4]: 1460 x10E3/uL
- ALANINE AMINOTRANSFERASE [4]: 52.33 u/L
- ALBUMIN [4]: 4.33 G/DL
- ALKALINE PHOSPHATASE [4]: 352.67 u/L
- ASPARTATE AMINOTRANSFERASE [4]: 78.67 u/L
- BLOOD UREA NITROGEN [4]: 18 mg/dL
- CARBON DIOXIDE [4]: 34.67 mmol/L
- CHLORIDE [4]: 100.67 MEQ/L
- CHOLESTEROL [4]: 77.33 mg/dL
- CREATINE PHOSPHOKINASE [4]: 322.67 u/L
- CREATININE [4]: 0.29 mg/dL
- GLUCOSE [4]: 137 mg/dL
- LACTATE DEHYDROGENASE [4]: 304 u/L
- LIPASE [4]: 11 u/L
- PHOSPHORUS [4]: 11.17 mg/dL
- POTASSIUM [4]: 6.32 MEQ/L
- SODIUM [4]: 143.43 MEQ/L
- TOTAL BILIRUBIN [4]: 0.23 mg/dL
- TOTAL PROTEIN [4]: 5.9 G/DL
- URIC ACID [4]: 1.43 mg/dL
